Data reported in patent US5504097A, “N-hydroxyureas as 5-lipoxygenase inhibitors and inhibitors of oxidative modification of low density lipoprotein” (American Home Products Corporation, priority 1995, dated 1996).

Tests used:
LTB4 = assay: Reverse Passive Arthus Reaction (pleurisy), LTB4 in pleural exudate; assay type: in vivo, male Lewis rats; settings: p.o.
Procedure: 3. Reverse Passive Arthus Reaction
A reverse passive Arthus reaction is induced in the pleural cavity of male Lewis rats (150-200 g; fasted overnight prior to use) by the intravenous administration of bovine serum albumin (BSA; 4 mg/0.2 ml) followed 30 minutes later by the injection of rabbit anti-BSA (1 mg/2.0 ml; lyophilized IgG fraction; Organon Teknika, West Chester, Pa.) into the right pleural space under halothane anesthesia. Drugs or vehicle (0.5% Tween-80) control are administered orally in a volume of 1 ml/100 g body weight at 1 hour prior to the anti-BSA. Animals are sacrificed at either the time of peak eicosanoid production (i.e. 5 minutes after anti-BSA for immunoreactive T×B2, 10 minutes for immunoreactive LTB4, 20 minutes for immunoreactive LTC4) or at the time of peak neutrophil infiltration (4 hours after anti-BSA) by CO2 inhalation. The pleural cavity is then exposed, the fluid exudate removed by gentle vacuum aspiration and the volume of exudate is recorded. For the determination of cellular infiltration, the pleural cavity is rinsed with 3 ml of 0.1% EDTA in sterile saline, and the recovered wash is pooled with the exudate. Cell number is determined on a model ZBI Coulter counter. For determination of eicosanoid production, undiluted pleural exudate is microfuged and the supernatant is extracted with ethanol (8-10 times volume). Extracts are either stored at -20° C., or are evaporated to dryness under a stream of N2 and reconstituted in radioimmunoassay (RIA) buffer.
Eicosanoids are quantitated by RIA according to the procedure specified by the RIA kit manufacturer (Advanced Magnetics, Cambridge, MA). Briefly, 100 μl of ^3 H-labeled eicosanoid and 100 μl of specific antibody are sequentially added to 100 μl of extracted pleural exudate in BGG-phosphate buffer which contains 0.01M phosphate, 0.1% bovine gamma globulin and 0.1% sodium azide at pH 7.0. Antibody-bound eicosanoid is separated from unbound eicosanoid by the addition of 750 μl of dextran (0.4%)-coated charcoal (Norit A) containing 0.1% sodium azide. The mixture is centrifuged at 2000 RPM at 5° C. for 15 minutes to pellet the charcoal and adsorbed unbound eicosanoid. Antibody-bound labeled eicosanoid is quantitated by counting in a liquid scintillation counter, and is correlated to concentration by a standard curve.

Lipoxygenase = assay: Ex-Vivo Measurement of Lipoxygenase Inhibition in Orally Dosed Rats (LTB4 in A23187-stimulated blood); set-up: species or system Male Sprague Dawley rats; settings: p.o.
Procedure: 2. Ex-Vivo Measurement of Lipoxygenase Inhibition in Orally Dosed Rats
After an interval of 3 or 6 hours, the rats were anesthetized with metofane (n=4/group) and blood collected in heparinized tubes. White blood cell counts and differentials were made. One ml of blood from each animal was placed in a 5 ml plastic tube in a shaker bath at 37° C. A23187 at a final concentration of 10 μM was added to the blood and the blood vortexed and incubated for 15 min at 37° C. with gentle shaking. Incubation was terminated by vortexing sample and centrifuging immediately at 1200× G for 15 min at 4° C. The plasma was transferred to 15 ml plastic tubes each containing 8 ml of methanol to precipitate protein followed by vortexing. The samples were stored at -70° C. overnight and the next day the samples were centrifuged at 800× G for 15 min to pellet the precipitate. The samples were dried in a Savant SpeedVac Concentrator Model SVC 200H and reconstituted to the original volume with cold RIA or ELISA buffer. The reconstituted samples were stored at -70° C. until assayed. The assay for LTB4 was performed according to the directions of the ^3 H!RIA kit or ELISA kit (Seragen). The total metabolite level in 1 ml of blood is calculated and reported as ng/10^6 neutrophils. Significance is determined by a one-way analysis of variance with LSD comparisons to control (p≤0.05).

[1] = 5 mg/kg, pretreatment period 6 hr

SMILES: Cc1oc(-c2ccccc2)nc1COc1ccc(CN(O)C(N)=O)cc1 [Example 1, 1-Hydroxy-1-4-(5-methyl-2-phenyl-oxazol-4-ylmethoxy)-benzyl!-urea]
- % Inhibition of LTB4 Synthesis (LTB4; 10 mg/kg): 36%
- % Inhibition of LTB4 Synthesis (LTB4; 25 mg/kg): 69%
- % Inhibition of LTB4 (Lipoxygenase; 10 mg/kg, pretreatment period 3 hr): 84%
- % Inhibition of LTB4 (Lipoxygenase; 10 mg/kg, pretreatment period 6 hr): 75%

SMILES: Cc1oc(-c2ccc(C(F)(F)F)cc2)nc1COc1ccc(CN(O)C(N)=O)cc1 [Example 6, 1-Hydroxy-1-4-5-methyl-2-(4-trifluoromethyl-phenyl)-oxazol-4-ylmethoxy!-benzyl!-urea]
- % Inhibition of LTB4 Synthesis (LTB4; 10 mg/kg): 45%
- % Inhibition of LTB4 (Lipoxygenase; [1]): 70%

SMILES: NC(=O)N(O)Cc1ccc(OCc2coc(-c3ccccc3)n2)cc1 [Example 9, 1-Hydroxy-1-4-(2-phenyl-oxazol-4-ylmethoxy)-benzyl!-urea]
- % Inhibition of LTB4 Synthesis (LTB4; 10 mg/kg): 60%
- % Inhibition of LTB4 (Lipoxygenase; [1]): 60%

SMILES: NC(=O)N(O)Cc1ccc(OCc2csc(-c3ccccc3)n2)cc1 [Example 10, 1-Hydroxy-1-4-(2-phenyl-thiazol-4-ylmethoxy)-benzyl!-urea]
- % Inhibition of LTB4 Synthesis (LTB4; 10 mg/kg): 99%
- % Inhibition of LTB4 (Lipoxygenase; [1]): 67%
